The values that follow come from patent publication US6087361A, “Aryl-imidazolines and aryl-imidazoles useful as α-2 adrenergic agonists without cardiovascular side effects” (Allergan Sales, Inc., priority 1997, dated 2000).

One series deals with I1 imidazoline receptor. Briefly: I1 imidazoline receptor binding assay, 3H-clonidine, bovine VLM membranes. Conditions: 25° C., 50 min. The method, then: Fresh bovine brain stems were obtained from a local slaughter house. After removal of pia-arachnoid, the medulla was isolated by dissecting the brain stem about 1 cm posterior and 1 cm caudal to the obex. The ventral quadrants of the medulla excluding the pyramids were used as the VLM. For each preparation, 30 to 40 VLM were used. Initial homogenization was performed in 20 volumes of 5 mM HEPES buffer (pH 7.4 at 4° C.) containing 250 mM sucrose, 50 uM Calpain I inhibitor (Boehginer Mannheim, Indianapolis, Ind.), 100 uM 1,10-phenanthroline (Sigma, St. Louis, Mo.) and 50 uM Pefabloc (Boehginer Mannheim, Indianapolis, Ind.), using Virtis homogenizer at setting 7 with three 10 second pulses, followed by three passes in a teflon-glass tissue homogenizer. The inhibitors were added to prevent degradation by proteases and peptidases. The homogenates were then centrifuged at 1000× g for 10 min and the resulting pellets were re-homogenized and centrifuged. Supernatants resulted from both runs were combined and centrifuged for 20 min at 48000× g. The pellets obtained were resuspended in a teflon-glass homogenizer in 50 mM Tris-HCl with 5 mM EDTA (pH 7.7 at 4° C.), centrifuged, and resuspended in 50 mM Tris-HCl with 25 mM NaCl, pH 7.7 at room temp. To remove endogenous ligands, the homogenate was incubated 30 min at room temp before it was centrifuged for 20 min at 48000× g. The pellets were then washed with 50 mM Tris-HCl buffer, (pH 7.4 at 4° C.) and loaded on top of 5 mM HEPES/0.85 M sucrose (pH 7.4 at 4° C.). Pellets obtained after centrifugation at 48000× g for 20 min were saved. The fatty connective tissue on the top layer was discarded. The partially purified VLM membrane pellets were then washed twice with 50 mM Tris-HCl, pH 7.7 at 4° C., flash frozen in dry ice/acetone slush, and stored at -100° C. until use. Receptor binding experiments were performed within days after the membrane preparation.
I1 imidazoline receptor binding affinity was determined from radioligand binding of ^3 H-clonidine (NEN, Boston, Mass.) to bovine VLM membranes. Specific activity of ^3 H-clonidine was 43 Ci/mmol. Kd of ^3 H-clonidine binding to the I1 imidazoline receptor was determined by saturation experiments and Ki of other ligands studied were determined by competition experiments. The radioligand binding assay was performed in Teflon 96-wells with the Biomek-1000 robotics (Beckman Instruments, Fullerton, Calif.). Each well contained […] ^3 H-Clonidine and 0.3 to 0.5 mg of bovine VLM protein in 5 mM HEPES buffer containing 0.5 mM EGTA and 0.5 mM MgCl2, pH 7.4 (0.1 mM ascorbic acid was added just before the protein). After 50 min of incubation at 25° C., the reaction was terminated by rapid filtration over Whatman GF/B filters treated with 0.1% polyethyleneimine and washed with 12 ml ice cold 50 mM Tris-HCl, pH 7.4 at 4° C. in a Brandel Harvester (Brandel, Gaithersburg, Md.). Both `hot` and `cold` saturation experiments were performed. In `hot` saturation experiments, studies were performed with ^3 H-clonidine ranging from 0.1 to 50 nM. In `cold` saturation experiments, studies were performed with 2 nM ^3 H-clonidine with 20 different concentrations of the unlabeled clonidine, ranging from 0.1 nM to 1 uM unlabeled clonidine. Non specific binding was defined by parallel incubations containing 10^-5 M phentolamine or naphazoline. Imidazoline binding was determined by parallel incubations in which the alpha-adrenergic sites were masked with 10^-5 M norepinephrine. During competition experiments, ligands of 20 concentrations ranged from 10^-11 to 10^-4 were used. Radioactivity was counted in a Beckman LS-3801 scintillation counter. Data were captured and analyzed with Accufit saturation and competition softwares modeled both for one-site and two-site fits (Beckman Instruments, Fullerton, Calif.) using an IBM compatible computer. All experiments were repeated at least twice.

The target of the next series is I2A. Briefly: Receptor binding, I2A.
For a further series, the target named is I2B. Put plainly: Receptor binding, I2B.
A further series addresses α1. Put plainly: Receptor binding, [3H]prazosin, human cerebral cortex membranes (HCC). The settings on record: 22° C., 30 min. The method, then:
Tissue preparation: Membrane suspensions were prepared from human cerebral cortex ([…], for α1 receptors) obtained from the UCI Organ and Tissue Bank. Briefly, tissues (1 g) were homogenized in 25 mL of ice-cold 5 mM Tris, pH 7.4 with a Polytron homogenizer for 30 sec at setting #7, and centrifuged for
10-12 minutes at 300× g at 4° C. The supernatant was filtered through 2 layers of gauze and diluted 1:2 with 50 mM Tris-HCl buffer, pH 7.4, then centrifuged at 49,000× g for 20 minutes. The pellet fraction was washed 3 times (resuspended in Tris-HCl buffer and centrifuged for 20 minutes; at 49,000× g). The pellet was then stored at -80° C. until the binding assay.
(§1) Binding Studies: The radioligands [^3 H]rauwolscine (specific activity 80 Ci/mmol) and [^3 H]prazosin (specific activity 76 Ci/mmol) were obtained from New England Nuclear, Boston, Mass. Frozen membrane pellet was resuspended in 25 mM glycine/glycine, pH 7.5 and incubated with radioligand under the following conditions: CHO-C10, CHO-RNG, CHO-C4-[^3 H]rauwolscine, 22° C., 30 minutes; RKC-[^3 H]rauwolscine, 0° C., 120 minutes; and, HCC-[^3 H]prazosin, 22° C., 30 minutes in a final volume of 500 ul. At the end of the incubation period, the samples were filtered through glass filters (Whatman GF/B) in a 96 well cell harvester and rapidly washed four times with 4 mL of iced-cold 50 mM Tris-HCl buffer. The filters were then oven dried and transferred to scintillation vials containing 10 mL of Beckman's Ready Protein® scintillation cocktail for counting. […] Protein concentrations were determined with a protein assay kit from Bio Rad. Binding isotherms, equilibrium dissociation and affinity constants were analyzed and determined by the non-linear least squares curve fitting programs EBDA (BioSoft) or AccuFit Competition/Saturation by Beckman.
(§2) The radioligands [^3 H] rauwolscine (specific activity 80 Ci/mmol) and [^3 H] prazosin (specific activity 76 Ci/mmol) were obtained from New England Nuclear, Boston, Mass. Frozen membrane pellet was resuspended in 25 mM glycine/glycine, pH 7.4 and incubated with radioligand under the following conditions: CHO-C10, CHO-RNG, CHO-C4-[^3 H]rauwolscine, 22° C., 30 min.; and, HCC-[^3 H]prazowsin, 22° C., 30 minutes in a final volume of 500 ul. At the end of the incubation period, the samples were filtered through glass fiber filters (Whatman GF/B) in a 96 well cell harvester and rapidly washed four times which 4 mL of iced-cold 50 mM Tris-CHI buffer. The filters were then oven dried and transferred to scintillation vials containing 5 mL of Beckman's Ready Protein® scintillation cocktail for counting. […] Protein concentrations were determined with a protein assay kit from Bio lad. Binding isotherms, equilibrium dissociation and affinity constants were analyzed and determined by the non-linear least squares curve fitting programs AccuFit Competition/Saturation by Beckman.
(§3) Representative compounds of the present invention were tested according to the procedures given above. […] The receptor binding studies and K1 are measures of the affinity of a compound for a particular receptor.

The subject of series [1] is imidazoline receptors and α2 adrenoceptors. The settings on record: cited from earlier work.
The conditions of series [2]: cited from earlier work.
The subject of another series is α2A. Conditions: cited from earlier work.
The conditions of series [3]: rabbit, in vivo.
Another series concerns α2 receptors. The settings on record: cited from earlier work.
Another series has as its system α1 receptors. The settings on record: prazosin vs yohimbine; cited from earlier work.
A further series has as its target T1, human α2C (Homo sapiens, UniProt P18825).
T1 construct: expressed in transfected cells; host or cells: CHO cells (CHO-C4)
T1 sequence (P18825 1-462): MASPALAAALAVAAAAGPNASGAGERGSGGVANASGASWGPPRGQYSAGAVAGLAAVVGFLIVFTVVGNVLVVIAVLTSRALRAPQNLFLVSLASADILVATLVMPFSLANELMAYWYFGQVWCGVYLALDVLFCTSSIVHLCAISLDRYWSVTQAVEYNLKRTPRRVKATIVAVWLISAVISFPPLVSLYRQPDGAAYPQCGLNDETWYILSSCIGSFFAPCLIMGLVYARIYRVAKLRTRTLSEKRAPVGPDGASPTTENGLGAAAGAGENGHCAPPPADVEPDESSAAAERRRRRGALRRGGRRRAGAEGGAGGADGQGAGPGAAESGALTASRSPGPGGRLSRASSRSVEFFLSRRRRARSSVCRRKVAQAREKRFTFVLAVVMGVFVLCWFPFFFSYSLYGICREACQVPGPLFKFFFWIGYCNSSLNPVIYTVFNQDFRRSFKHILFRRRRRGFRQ
Put plainly: Receptor binding, [3H]rauwolscine, CHO-C4 cells expressing human α2C. The settings on record: CHO-C4, 22° C., 30 min. The method, then:
Cell preparation: Chinese hamster ovary (CHO) cells expressing the human α2A and human α2C (CHO-C10 and CHO-C4 respectively) receptors and CHO cells (CHO-RNG) expressing the rat α2B, adrenoceptor were grown to near confluence in Dulbecco's modified Eagle's medium supplemented with 10% fetal bovine serum using standard cell culture methods. Cells were harvested by scraping and placed into cold buffer of the following composition: 50 mM Tris-HCl, 5 mM EDTA, pH 7.4). […] The pellet fraction was washed (resuspended in Tris-HCl, pH 8 buffer and centrifuged for 15-20 minutes at 49,000× g) 2 times and stored at -100° until binding assay.
as §1, §2, §3

Consider `COc1ccc(Nc2ncc[nH]2)c(C)c1` [Example 19], for which the Ki (in general, a dissociation constant, usually derived from enzyme kinetics or from competition with a known ligand) is 0.013 µM on I1 imidazoline receptor, 6.18 µM at I2A, 0.179 µM on I2B and 7.61 µM at α1.
In the case of `C1COC(NC(C2CC2)C2CC2)=N1` [rilmenidine], in [1], the “selectivity for imidazoline receptors (in words)” value is on record as “more selective for imidazoline receptors than for α2 -adrenoceptors”. Besides, the “side effects compared to clonidine” value in [2] (equihypotensive doses) is “less bradycardia and reduction in cardiac output, less sedation, and little or no antinociceptive action compared to clonidine”.
Regarding `Cc1cccc([C@H](C)c2cnc[nH]2)c1C` [dexmedetomidine], the “α2A selectivity (in words)” value in the series on α2A is recorded as “a2A selective”.
As for `Clc1cccc(Cl)c1N=C1NCCN1` [clonidine], the “binding to α2 and imidazoline receptors (in words)” value in [1] is “binds to both α2 and imidazoline receptors”. For the same molecule, the “cardiovascular effect (in words)” value in [2] (in vivo) is reported as “hypotensive cardiovascular effects”. Further, in series [3], the “IOP of the untreated eye (systemic effect)” value was “the IOP of the untreated eye is lowered to the same extent as the treated eye”. The “α2 adrenergic mechanism of action (in words)” value with α2 receptors is “centrally acting α2 adrenergic partial agonist”.
For `Cc1c(Nc2ncc[nH]2)ccc2c1NCCO2` [Example 17], the Ki at I1 imidazoline receptor worked out at 5.3 µM; at I2A, 27 µM; on I2B, 9.28 µM; on α1, 14.8 µM.
On to `COc1cc2nc(N3CCN(C(=O)c4ccco4)CC3)nc(N)c2cc1OC` [prazosin], for which the “relative potency at α1 receptors (in words)” value with α1 receptors is “more potent that yohimbine”.
With `Clc1cccc(Cl)c1NC1=NCCN1` [Example 2], the Ki at I1 imidazoline receptor is 0.0089 µM; at I2A it was 10 µM; on I2B, 12.5 µM.
Take `Brc1c(NC2=NCCN2)ccc2nccnc12` [Example 5]: the Ki on I1 imidazoline receptor turned out to be 0.017 µM; on I2A it was 7.19 µM; on I2B, 0.614 µM; on α1, 1.85 µM.
On to `Cc1c(Nc2ncc[nH]2)ccc2c1OCCO2` [Example 21], for which the Ki came out at 0.444 µM at I1 imidazoline receptor, 7.71 µM at I2A, 0.686 µM on I2B and 2.15 µM at α1.
With `Cc1c(Nc2ncc[nH]2)ccc2nccnc12` [Example 24], the Ki at I1 imidazoline receptor amounted to 0.227 µM; on I2A, 6.37 µM; on I2B, 0.036 µM; on α1, 30.6 µM; on human α2C it was 0.212 µM.
Regarding `COc1nc(C)nc(Cl)c1NC1=NCCN1` [Example 6], the Ki at I1 imidazoline receptor turned out to be 0.056 µM; at I2A, 100 µM; on I2B, 100 µM; on α1, 38.6 µM.
With `Cc1cc(C(C)(C)C)c(O)c(C)c1CC1=NCCN1` [Example 23], the Ki came to 7.42 µM at I1 imidazoline receptor, 12.9 µM at I2A, 2.69 µM on I2B and 0.199 µM at α1.
As to `COC(=O)[C@@H]1[C@H]2C[C@H]3c4[nH]c5ccccc5c4CCN3C[C@@H]2CC[C@@H]1O` [yohimbine], the “relative potency at α2 receptors (in words)” value in the series with α2 receptors (yohimbine vs prazosin) was “more potent than prazosin”.
